Assay results reported in patent publication US7341857B2, “Production of beta-hydroxypalmitate methyl esterase from Ideonella sp.0-0013 (FERM BP-08660)” (Incorporated Administrative Agency National Agriculture and …, priority 2003, dated 2008).

What was measured:
[1] = system: esterase derived from Ideonella sp. 0-0013 strain; assay: Inhibition, activation and stabilization of the esterase; assay type: biochemical
Experimental: Methyl 3-hydroxypalmitate is detected by gas chromatography with a column of Stabilwax-DA, 30 m×0.53 mm×0.25 μm. The 3-hydroxypalmitic acid generated by hydrolysis of the ester can be detected by the same gas chromatography as described above. • (2) Optimal temperature for functioning: The optimal temperature of the enzyme of the present invention is 37° C. • (3) Optimal pH and stable pH range: pH 7 or more to pH 10 or less. • (4) Temperature stability: 97% of the enzyme is stable at 43° C., 54% of the enzyme is stable at 50° C., and 38% of the enzyme is stable at 60° C. • (5) Inhibition, activation, and stabilization: Activated by sodium ion and potassium ion, and inhibited by strontium ion, iron ion (divalent), and methyl palmitate. • (6) Molecular weight: About 46,500 Da (by SDS-PAGE), about 41,000 Da (by a gel filtration method). • (7) Isoelectric point: pI 4 (by polyacrylamide gel isoelectric focusing method).

[2] = system: esterase derived from Ideonella sp. 0-0013 strain; assay: Decomposing activities of methyl palmitate or methyl 3-hydroxypalmitate (Test Example 2, substrate selectivity); assay type: biochemical; conditions: for Decomposition: 0.5 mg of substrate; for Activity ratio: methyl 3-hydroxypalmitate = 100.0
Experimental: The culture broth obtained by cultivating the strain in the same manner as that in Example 1 was centrifuged to obtain a supernatant and microbial cells. The supernatant or the microbial cells were suspended in 200 μL of 10 mM potassium phosphate buffer (pH 7.0) containing 0.5 mg of methyl 3-hydroxypalmitate, and the resultant was allowed to react at 43° C. for 12 hours.
After completion of the reaction, 500 μL of dichloromethane was added to the reaction mixture to extract 3-hydroxypalmitic acid. The extract was subjected to gas chromatography (Stabilwax-DA, 30 m×0.53 mm×0.25 μm) to measure the decomposing activity of methyl 3-hydroxypalmitate.
0.5 mg of methyl palmitate or methyl 3-hydroxypalmitate was reacted and analyzed in the same manner as that in Example 1 and the decomposing activities of the compounds were measured in each case.

SMILES | Inhibition, activation, and stabilization (effect on the esterase) [1] | Decomposition [2] | Activity ratio [2] | hydrolytic activity relative to that for methyl palmitate [2]
[K+] [potassium ion] | Activated |  |  | 
CCCCCCCCCCCCCCCC(=O)OC [Methyl palmitate, methyl palmitate] | inhibited | 10.3% | 20.5 | 
CCCCCCCCCCCCCC(O)CC(=O)OC (stereo not shown) [Methyl 3-hydroxypalmitate, methyl 3-hydroxypalmitate] |  | 50.3% | 100.0 | about 5 times
[Fe+2] [iron ion (divalent)] | inhibited |  |  | 

Further lines, results first:

Inhibition, activation, and stabilization (effect on the esterase) [1] | Decomposition [2] | Activity ratio [2] | hydrolytic activity relative to that for methyl palmitate [2] | SMILES
Activated |  |  |  | [Na+] [sodium ion]
inhibited |  |  |  | [Sr+2] [strontium ion]
